{"source": "patent US20160067193A1", "about": "“TOPICAL PTEROSTILBENE COMPOSITIONS FOR USE IN TREATING UV-INDUCED SKIN DAMAGE AND HYPERPLASIA” (The Regents of the University of California, priority 2014, published 2016)", "key": {"[1]": {"tested_on": "skin of SKH-1 mice", "experiment": "UV-B induced visual skin damage (redness) in SKH-1 mice, topical treatment", "assay_type": "in vivo", "conditions": "topical 10 μmol/0.2 ml acetone/mouse 30 min before 180 mJ/cm^2 UV-B, every 2 days, 7 treatments, 5 mice per group", "protocol": "FIG. 2 depicts the manner in which pterostilbene prevents UV-B induced damage in the skin of SKH-1 mice. […] Photographs show representative mice after 4th treatment.\n(§1) UV-B exposure. Mice were exposed to a single dose of 180 mJ/cm^2 UVB radiation delivered via broadband UVB lamps (TL 40 W/12 RS; Philips) emitting 290-350 nm light with a peak emission at 312 nm. The irradiance was measured using a thermopile sensor (818P-001-12; Newport Inc., Irvine, Calif.) and power meter (842-PE; Newport Inc.).\nHairless SKH-1 mice were used to evaluate the effectiveness of pterostilbene at preventing UV-mediated damage in skin. The SKH-1 model is ideally suited for this purpose and is commonly used in preclinical studies and yielded valuable results. […] To ascertain if pterostilbene could also prevent those molecular alterations, we replicated these experiments. […] For all topical treatments 200 μl total volume was applied to the back skin of the mouse. For acetone group, 200 μl of acetone was applied. […] These mice were treated every 2 days for 7 total treatments. […] 24 hrs after last treatment, mice were euthanized, skin bi-fold measurements taken and back skins collected. As shown in FIGS. 2 and 3A-B, pterostilbene prevented UV-B-induced damage in mouse skin. […] This prevention of visual skin damage by pterostilbene correlated nicely with the prevention of DNA damage. […]"}, "[2]": {"conditions": "cited from earlier work; for bioavailability: in vivo"}, "[3]": {"tested_on": "skin of SKH-1 mice", "experiment": "ELISA of UV-B induced DNA damage (CPD, 64 pp) in back skin DNA of SKH-1 mice", "assay_type": "in vivo", "conditions": "topical 10 μmol/mouse before 180 mJ/cm^2 UV-B, 14-day experiment", "source_text": "FIGS. 3A and 3B depict the manner in which pterostilbene prevents UV-B induced DNA damage in the skin of SKH-1 mice, namely (A) CPD or (B) 64 pp DNA damage. ELISAs are shown for different arms of mouse study (Abs. 492 nm). * indicates p<0.01 as compared with vehicle (VEH). (RES) is resveratrol and (PTERO) is pterostilbene. NS is not significant.\nas §1\nELISAS. DNA was isolated from snap frozen whole back skin using Qiagen QIAamp Blood mini kit (cat #51104) per manufacturer's instructions. ELISAs were performed on purified DNA with anti-CPD (clone TDM2) and anti-64 PP (clone 64M-2) antibodies using manufacturer's protocol and read using a DTX 800 Multimode Detector plate reader (Beckman Coulter) using standard settings from colorimetric detection. Four technical replicates were used and DNA-free wells were used as negative control.\nHairless SKH-1 mice were used to evaluate the effectiveness of pterostilbene at preventing UV-mediated damage in skin. The SKH-1 model is ideally suited for this purpose and is commonly used in preclinical studies and yielded valuable results. […] To ascertain if pterostilbene could also prevent those molecular alterations, we replicated these experiments. […] For all topical treatments 200 μl total volume was applied to the back skin of the mouse. For acetone group, 200 μl of acetone was applied. […] These mice were treated every 2 days for 7 total treatments. […] 24 hrs after last treatment, mice were euthanized, skin bi-fold measurements taken and back skins collected. As shown in FIGS. 2 and 3A-B, pterostilbene prevented UV-B-induced damage in mouse skin. […] This prevention of visual skin damage by pterostilbene correlated nicely with the prevention of DNA damage. […] Therefore pterostilbene prevented the 2 major types of UV-induced DNA damage (CPD and 64 pp) in the skin of SKH-1 mice.\nDNA was obtained from the back skin of the SKH-1 mice from the experiment above after completion of the 14-day experiment. This DNA was then examined for DNA damage (both CPD and 64 pp) quantitatively using ELISA as previously described (Nishiwaki, Y., et al., “Trichothiodystrophy fibroblasts are deficient in the repair of ultraviolet-induced cyclobutane pyrimidine dimers and (6-4) photoproducts,” J. Invest. Dermatol. (2004) 122: 526-32). […] Quantification of DNA damage was measured at 492 nm by a spectrophotometer."}, "[4]": {"conditions": "rats, relative to resveratrol; cited from earlier work"}, "[5]": {"tested_on": "skin of SKH-1 mice", "experiment": "UV-B mediated bi-fold skin thickening and hyperplasia (H&E) in SKH-1 mice", "assay_type": "in vivo", "conditions": "topical 10 μmol/mouse before 180 mJ/cm^2 UV-B", "protocol": "FIG. 3C depicts the manner in which pterostilbene prevents UV-mediated bi-fold skin thickening. Bi-fold skin measurements (mm) were made using a digital caliper. At least three measurements for each mouse were taken along the back.\nFIG. 4 depicts the manner in which pterostilbene prevents UV-mediated hyperplasia. H&E stains of back skins from mice in the indicated treatment arms (i.e., UV-B treated and control) were performed.\nas §1\nHairless SKH-1 mice were used to evaluate the effectiveness of pterostilbene at preventing UV-mediated damage in skin. The SKH-1 model is ideally suited for this purpose and is commonly used in preclinical studies and yielded valuable results. […] To ascertain if pterostilbene could also prevent those molecular alterations, we replicated these experiments. […] For all topical treatments 200 μl total volume was applied to the back skin of the mouse. For acetone group, 200 μl of acetone was applied. […] These mice were treated every 2 days for 7 total treatments. […]"}, "[6]": {"conditions": "125 mg orally twice a day, human; cited from earlier work"}, "[7]": {"experiment": "In vitro glucuronidation assay with pooled human liver microsomes", "assay_type": "in vitro ADME", "conditions": "100 μg pooled human liver microsomes (n=20), 500 μM compound, HPLC 308 nm"}, "[8]": {"tested_on": "mouse epidermis", "conditions": "cited from earlier work"}}, "data": [{"smiles": "Oc1ccc(C=Cc2cc(O)cc(O)c2)cc1", "note": "[resveratrol, reference compound]", "values": [{"measurement": "redness (sunburn) on back skin", "setting": "[1]", "value": "able to limit the amount of redness observed on the back, it did not prevent it"}, {"measurement": "half life t1/2 in blood", "setting": "[2]", "value": "about 14 minutes"}, {"measurement": "bioavailability", "setting": "[2]", "value": "poor bioavailability"}, {"measurement": "64 pp DNA damage by ELISA (Abs. 492 nm)", "setting": "[3]", "value": "no 64 pps are observed"}, {"measurement": "CPD DNA damage by ELISA (Abs. 492 nm)", "setting": "[3]", "value": "quantitatively detected above background"}]}, {"smiles": "COc1cc(/C=C/c2ccc(O)cc2)cc(OC)c1", "note": "[pterostilbene, 3,5-dimethoxy-4′-hydroxy-trans-stilbene]", "values": [{"measurement": "redness (sunburn) on back skin", "setting": "[1]", "value": "no redness was observed on any of the 5 mice"}, {"measurement": "increased bioavailability versus resveratrol", "setting": "[4]", "value": 5, "unit": "fold"}, {"measurement": "half life t1/2 in blood", "setting": "[2]", "value": "about 105 minutes"}, {"measurement": "bioavailability", "setting": "[2]", "value": "orally bioavailable"}, {"measurement": "UV-mediated bi-fold skin thickening", "setting": "[5]; digital caliper on dorsal skin, versus vehicle+UV-B", "value": "prevented UV-mediated bi-fold skin thickening"}, {"measurement": "UV-mediated hyperplasia (H&E stain of back tissue)", "setting": "[5]; formalin fixed paraffin embedded back tissue", "value": "prevented UV-mediated hyperplasia at the cellular level"}, {"measurement": "overall blood pressure", "setting": "[6]", "value": "reduction in overall blood pressure was observed"}, {"measurement": "toxicity in patients", "setting": "[6]", "value": "no toxicity reported"}, {"measurement": "extent of metabolism (glucuronidation) after 2 hours", "setting": "[7]", "value": 20, "unit": "%"}, {"measurement": "64 pp DNA damage by ELISA (Abs. 492 nm)", "setting": "[3]", "value": "no 64 pps are observed"}, {"measurement": "CPD DNA damage by ELISA (Abs. 492 nm)", "setting": "[3]", "value": "no CPDs were detected"}, {"measurement": "COX-2 activation and TPA-induced tumor formation in mouse epidermis in vivo", "setting": "[8]; 12-O-tetradecanoylphorbol-13-acetate (TPA), mouse epidermis in vivo", "value": "prevent COX-2 activation and 12-O-tetradecanoylphorbol-13-acetate (TPA)-induced tumor formation"}, {"measurement": "potency versus resveratrol in inhibition of NF-KB, AP-1 and iNOS activation in mouse skin", "setting": "[8]; mouse skin", "value": "equally or significantly more potent than resveratrol"}]}]}
